For 25 molecules, IC50 results are on record in patent US20240025884A1 (Dong-A ST Co., Ltd., priority 2022, published 2024).

SMILES strings stand for the structures.

GCN2, sequence (Q9P2K8 whole entry): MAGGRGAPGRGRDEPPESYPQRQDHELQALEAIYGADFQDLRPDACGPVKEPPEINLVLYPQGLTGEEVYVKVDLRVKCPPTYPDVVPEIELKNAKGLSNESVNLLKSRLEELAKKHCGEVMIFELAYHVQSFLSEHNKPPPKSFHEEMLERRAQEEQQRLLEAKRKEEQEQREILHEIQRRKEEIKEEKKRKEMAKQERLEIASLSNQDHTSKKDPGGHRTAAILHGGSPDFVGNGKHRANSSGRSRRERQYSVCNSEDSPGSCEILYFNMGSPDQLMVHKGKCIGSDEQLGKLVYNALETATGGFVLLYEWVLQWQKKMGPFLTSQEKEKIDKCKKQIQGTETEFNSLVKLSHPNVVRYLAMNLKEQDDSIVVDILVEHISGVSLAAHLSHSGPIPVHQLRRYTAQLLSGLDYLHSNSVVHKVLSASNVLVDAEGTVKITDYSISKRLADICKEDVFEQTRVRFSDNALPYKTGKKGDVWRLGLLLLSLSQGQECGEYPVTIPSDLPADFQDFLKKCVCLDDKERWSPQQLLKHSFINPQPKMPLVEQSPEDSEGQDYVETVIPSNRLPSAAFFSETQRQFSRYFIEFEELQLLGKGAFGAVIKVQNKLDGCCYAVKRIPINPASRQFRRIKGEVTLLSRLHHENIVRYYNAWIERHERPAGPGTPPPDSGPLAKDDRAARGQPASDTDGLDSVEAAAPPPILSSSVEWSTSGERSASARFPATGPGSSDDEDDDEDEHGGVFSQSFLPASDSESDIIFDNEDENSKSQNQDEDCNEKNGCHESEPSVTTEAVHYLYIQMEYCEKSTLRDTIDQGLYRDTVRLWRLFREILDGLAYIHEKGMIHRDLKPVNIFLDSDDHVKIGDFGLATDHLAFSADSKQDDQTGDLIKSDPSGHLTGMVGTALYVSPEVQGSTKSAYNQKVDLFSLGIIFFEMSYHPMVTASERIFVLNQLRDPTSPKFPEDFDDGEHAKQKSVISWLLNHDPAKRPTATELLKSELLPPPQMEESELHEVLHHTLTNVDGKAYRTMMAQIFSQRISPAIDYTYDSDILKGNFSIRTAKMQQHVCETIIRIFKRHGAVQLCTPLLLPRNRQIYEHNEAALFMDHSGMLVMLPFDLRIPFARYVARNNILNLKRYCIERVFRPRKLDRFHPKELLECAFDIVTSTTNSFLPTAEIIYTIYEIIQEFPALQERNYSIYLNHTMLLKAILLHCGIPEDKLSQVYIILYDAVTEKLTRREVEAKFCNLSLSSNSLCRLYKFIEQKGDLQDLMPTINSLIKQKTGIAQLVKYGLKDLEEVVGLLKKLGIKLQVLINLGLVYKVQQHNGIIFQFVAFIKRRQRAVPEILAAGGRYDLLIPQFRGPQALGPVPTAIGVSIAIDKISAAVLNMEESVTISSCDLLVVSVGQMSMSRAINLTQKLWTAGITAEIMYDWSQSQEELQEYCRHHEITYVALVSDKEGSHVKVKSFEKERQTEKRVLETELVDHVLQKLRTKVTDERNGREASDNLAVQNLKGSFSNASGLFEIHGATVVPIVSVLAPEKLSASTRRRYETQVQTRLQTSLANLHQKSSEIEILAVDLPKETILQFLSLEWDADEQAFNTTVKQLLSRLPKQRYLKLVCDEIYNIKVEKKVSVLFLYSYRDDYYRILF

The assay concerns the target GCN2 (Homo sapiens (Human), UniProt Q9P2K8). As to the kind of experiment: GCN2 Biochemical Assay (TR-FRET, GFP-eIF2S1 substrate phosphorylation). Particulars: read-out: IC50 (GCN2 Inhibitory Activity). Put shortly: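 TR-FRET readout (Ex 340, Em 490/520 nm) after 2–3 h with Tb-labelled phospho-eIF2S1 antibody in stop mix, following a 70 min room-temperature kinase step. Reaction: in-house GCN2, GFP-eIF2S1, ATP, tRNA in Tris pH 7.5 (2× stocks 1.6 nM, 50 nM, 0.2 mM); compounds tested at 10 concentrations, with a phospho-substrate artifact counter-plate.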
(In TR-FRET formats the signal depends on donor and acceptor labels being close together.)
In general, IC50 refers to the midpoint of a concentration-inhibition curve. As for `Cc1cnc(Nc2cc(C)n(C)n2)nc1-c1c[nH]c2c(NC(=O)CN3CC[C@H](Oc4ccc(C(C)(C)c5ccccc5)cc4)C3)cccc12` [Example 101, (S)-N-(3-(2-((1,5-dimethyl-1H-pyrazol-3-yl)amino)-5-methylpyrimidin-4-yl)-1H-indol-7-yl)-2-(3-(4-(2-phenylpropan-2-yl)phenoxy)pyrrolidin-1-yl)acetamide], the IC50 was greater than 1000 nM.
On to `Cc1cnc(Nc2cc(C)n(C)n2)nc1-c1c[nH]c2c(N3Cc4c(cccc4C4=CCN(C(N)=O)CC4)C3=O)cccc12` [Example 467, 4-(2-(3-(2-((1,5-dimethyl-1H-pyrazol-3-yl)amino)-5-methylpyrimidin-4-yl)-1H-indol-7-yl)-1-oxoisoindolin-4-yl)-3,6-dihydropyridine-1(2H)-carboxamide], for which the IC50 was less than 10 nM.
For `Cc1cnc(Nc2cc(C)n(C)n2)nc1-c1c[nH]c2c(N3Cc4c(NC(=O)C5CCOC5)cccc4C3=O)cccc12` (stereo not shown) [Example 326, N-(2-(3-(2-((1,5-dimethyl-1H-pyrazol-3-yl)amino)-5-methylpyrimidin-4-yl)-1H-indol-7-yl)-1-oxoisoindolin-4-yl)tetrahydrofuran-3-carboxamide], the IC50 is less than 10 nM.
In the case of `Cc1cnc(Nc2cc(C)n(C)n2)nc1-c1c[nH]c2c(N3Cc4c(cccc4-c4ccc(C#N)cc4)C3=O)cccc12` [Example 432, 4-(2-(3-(2-((1,5-dimethyl-1H-pyrazol-3-yl)amino)-5-methylpyrimidin-4-yl)-1H-indol-7-yl)-1-oxoisoindolin-4-yl)benzonitrile], the IC50 is less than 10 nM.
In the case of `Cc1cnc(Nc2cc(C)n(C)n2)nc1-c1c[nH]c2c(N3Cc4c(/C=C/CO)cccc4C3=O)cccc12` [Example 375, (E)-2-(3-(2-((1,5-dimethyl-1H-pyrazol-3-yl)amino)-5-methylpyrimidin-4-yl)-1H-indol-7-yl)-4-(3-hydroxyprop-1-en-1-yl)isoindolin-1-one], the IC50 was less than 10 nM.
The figure for `Cc1cnc(Nc2cc(C)n(C)n2)nc1-c1c[nH]c2c(NC(=O)CN3CC[C@H](Oc4ncnc(NC5CC5)n4)C3)cccc12` [Example 137, (S)-2-(3-((4-(cyclopropylamino)-1,3,5-triazin-2-yl)oxy)pyrrolidin-1-yl)-N-(3-(2-((1,5-dimethyl-1H-pyrazol-3-yl)amino)-5-methylpyrimidin-4-yl)-1H-indol-7-yl)acetamide] is less than 10 nM.
As for `CCNc1cc(O[C@H]2CCN(CC(=O)Nc3cccc4c(-c5nc(Nc6cc(C)n(C)n6)ncc5C)c[nH]c34)C2)ncn1` [Example 142, (S)-N-(3-(2-((1,5-dimethyl-1H-pyrazol-3-yl)amino)-5-methylpyrimidin-4-yl)-1H-indol-7-yl)-2-(3-((6-(ethylamino)pyrimidin-4-yl)oxy)pyrrolidin-1-yl)acetamide], the IC50 is less than 10 nM.
In the case of `Cc1cnc(Nc2cc(C)n(C)n2)nc1-c1c[nH]c2c(NC(=O)CN3CC[C@H](Oc4ncc(F)c(NC5CCCCC5)n4)C3)cccc12` [Example 180, (S)-2-(3-((4-(cyclohexylamino)-5-fluoropyrimidin-2-yl)oxy)pyrrolidin-1-yl)-N-(3-(2-((1,5-dimethyl-1H-pyrazol-3-yl)amino)-5-methylpyrimidin-4-yl)-1H-indol-7-yl)acetamide] it was 10 to 100 nM; in that of `COc1cc(OC)c2c(c1)C(=O)N(c1cccc3c(-c4nc(Nc5cc(C)n(C)n5)ncc4C)c[nH]c13)C2` [Example 280, 2-(3-(2-((1,5-dimethyl-1H-pyrazol-3-yl)amino)-5-methylpyrimidin-4-yl)-1H-indol-7-yl)-4,6-dimethoxyisoindolin-1-one], 100 to 1000 nM.
In the case of `Cc1cnc(Nc2cc(C)n(C)n2)nc1-c1c[nH]c2c(N3Cc4c(NS(=O)(=O)C(C)C)cccc4C3=O)cccc12` [Example 344, N-(2-(3-(2-((1,5-dimethyl-1H-pyrazol-3-yl)amino)-5-methylpyrimidin-4-yl)-1H-indol-7-yl)-1-oxoisoindolin-4-yl)propane-2-sulfonamide] it was less than 10 nM; in that of `Cc1cc(S(=O)(=O)Nc2cccc3c2CN(c2cccc4c(-c5nc(Nc6cc(C)n(C)n6)ncc5C)c[nH]c24)C3=O)ccc1F` [Example 345, N-(2-(3-(2-((1,5-dimethyl-1H-pyrazol-3-yl)amino)-5-methylpyrimidin-4-yl)-1H-indol-7-yl)-1-oxoisoindolin-4-yl)-4-fluoro-3-methylbenzenesulfonamide], 10 to 100 nM.
The figure for `Cc1cnc(Nc2cc(C)n(C)n2)nc1-c1c[nH]c2c(NC(=O)CN3C[C@@H](F)[C@H](Oc4ccncc4)C3)cccc12` [Example 51, N-(3-(2-((1,5-dimethyl-1H-pyrazol-3-yl)amino)-5-methylpyrimidin-4-yl)-1H-indol-7-yl)-2-((3R,4R)-3-fluoro-4-(pyridin-4-yloxy)pyrrolidin-1-yl)acetamide] is 10 to 100 nM; for `Cc1cnc(Nc2cc(C)n(C)n2)nc1-c1c[nH]c2c(NC(=O)CN3CC(Oc4ccncc4)C3)cccc12` [Example 28, N-(3-(2-((1,5-dimethyl-1H-pyrazol-3-yl)amino)-5-methylpyrimidin-4-yl)-1H-indol-7-yl)-2-(3-(pyridin-4-yloxy)azetidin-1-yl)acetamide] it is 10 to 100 nM.
For the molecule `Cc1cnc(Nc2cc(C)n(C)n2)nc1-c1c[nH]c2c(NC(=O)CN3CC[C@H](Oc4cncc(NCCN(C)C)n4)C3)cccc12` [Example 247, (S)-N-(3-(2-((1,5-dimethyl-1H-pyrazol-3-yl)amino)-5-methylpyrimidin-4-yl)-1H-indol-7-yl)-2-(3-((6-((2-(dimethylamino)ethyl)amino)pyrazin-2-yl)oxy)pyrrolidin-1-yl)acetamide], the IC50 was less than 10 nM.
Regarding `COc1cc(-c2ccc(F)c3c2CN(c2cccc4c(-c5nc(Nc6cc(C)n(C)n6)ncc5C)c[nH]c24)C3=O)ccn1` [Example 481, 2-(3-(2-((1,5-dimethyl-1H-pyrazol-3-yl)amino)-5-methylpyrimidin-4-yl)-1H-indol-7-yl)-7-fluoro-4-(2-methoxypyridin-4-yl)isoindolin-1-one], the IC50 is less than 10 nM.
As to `Cc1cnc(Nc2cc(C)n(C)n2)nc1-c1c[nH]c2c(NC(=O)CN3CC[C@H](Oc4nc(C(=O)NC5CC5)co4)C3)cccc12` [Example 127, (S)-N-cyclopropyl-2-((1-(2-((3-(2-((1,5-dimethyl-1H-pyrazol-3-yl)amino)-5-methylpyrimidin-4-yl)-1H-indol-7-yl)amino)-2-oxoethyl)pyrrolidin-3-yl)oxy)oxazole-4-carboxamide], the IC50 was in the range of 10 to 100 nM.
Turning to `COc1nccc(O[C@H]2CCN(CC(=O)Nc3cccc4c(-c5nc(Nc6cc(C)n(C)n6)ncc5C)c[nH]c34)C2)n1` [Example 194, (S)-N-(3-(2-((1,5-dimethyl-1H-pyrazol-3-yl)amino)-5-methylpyrimidin-4-yl)-1H-indol-7-yl)-2-(3-((2-methoxypyrimidin-4-yl)oxy)pyrrolidin-1-yl)acetamide], the IC50 is less than 10 nM.
Consider `Cc1cnc(Nc2cc(C)n(C)n2)nc1-c1c[nH]c2c(NC(=O)CN3CC[C@H](Oc4ccn(C)n4)C3)cccc12` [Example 105, (S)-N-(3-(2-((1,5-dimethyl-1H-pyrazol-3-yl)amino)-5-methylpyrimidin-4-yl)-1H-indol-7-yl)-2-(3-((1-methyl-1H-pyrazol-3-yl)oxy)pyrrolidin-1-yl)acetamide], for which the IC50 was less than 10 nM.
Take `Cc1cnc(Nc2cc(C)n(C)n2)nc1-c1c[nH]c2c(NC(=O)CN3CCC(Oc4ccncc4)CC3)cccc12` [Example 40, N-(3-(2-((1,5-dimethyl-1H-pyrazol-3-yl)amino)-5-methylpyrimidin-4-yl)-1H-indol-7-yl)-2-(4-(pyridin-4-yloxy)piperidin-1-yl)acetamide]: the IC50 lay within 100 to 1000 nM.
As for `Cc1cnc(Nc2cc(C)n(C)n2)nc1-c1c[nH]c2c(NC(=O)CN3CCCC(Oc4cc(C(=O)NC5CC5)on4)C3)cccc12` (stereo not shown) [Example 44, N-cyclopropyl-3-((1-(2-((3-(2-((1,5-dimethyl-1H-pyrazol-3-yl)amino)-5-methylpyrimidin-4-yl)-1H-indol-7-yl)amino)-2-oxoethyl)piperidin-3-yl)oxy)isoxazole-5-carboxamide], the IC50 was in the range of 100 to 1000 nM.
As to `Cc1cnc(Nc2cc(C)n(C)n2)nc1-c1c[nH]c2c(N3Cc4c(-c5cccnc5)ccnc4C3=O)cccc12` [Example 495, 6-(3-(2-((1,5-dimethyl-1H-pyrazol-3-yl)amino)-5-methylpyrimidin-4-yl)-1H-indol-7-yl)-4-(pyridin-3-yl)-5,6-dihydro-7H-pyrrolo[3,4-b]pyridin-7-one], the IC50 is less than 10 nM.
Turning to `Cc1cnc(Nc2cc(C)n(C)n2)nc1-c1c[nH]c2c(NC(=O)CN3CC[C@H](Oc4ccnc(NC5CC5)n4)C3=O)cccc12` [Example 60, (S)-2-(3-((2-(cyclopropylamino)pyrimidin-4-yl)oxy)-2-oxopyrrolidin-1-yl)-N-(3-(2-((1,5-dimethyl-1H-pyrazol-3-yl)amino)-5-methylpyrimidin-4-yl)-1H-indol-7-yl)acetamide], the IC50 was 10 to 100 nM.
For the molecule `Cc1cnc(Nc2cc(C)n(C)n2)nc1-c1c[nH]c2c(NC(=O)CN3CC[C@H](Oc4ncc(F)cn4)C3)cccc12` [Example 93], the IC50 lay in the range of 10 to 100 nM.
For the molecule `Cc1cnc(Nc2cc(C)n(C)n2)nc1-c1c[nH]c2c(N3Cc4c(cccc4-c4ccccc4N)C3=O)cccc12` [Example 462, 4-(2-aminophenyl)-2-(3-(2-((1,5-dimethyl-1H-pyrazol-3-yl)amino)-5-methylpyrimidin-4-yl)-1H-indol-7-yl)isoindolin-1-one], the IC50 fell in the range of 10 to 100 nM.
In the case of `Cc1cnc(Nc2cc(C)n(C)n2)nc1-c1c[nH]c2c(N3Cc4c(O)cccc4C3=O)cccc12` [Example 281, 2-(3-(2-((1,5-dimethyl-1H-pyrazol-3-yl)amino)-5-methylpyrimidin-4-yl)-1H-indol-7-yl)-4-hydroxyisoindolin-1-one] it was less than 10 nM.
